The text below walks through data of patent US9133158B2, “Bicyclic dihydroisoquinoline-1-one derivatives” (Hoffmann-La Roche Inc., priority 2011, dated 2015).

This experiment has as its target T1, human CYP11B2 (Homo sapiens, UniProt P19099).
T1 construct: expressed in transfected cells
T1 sequence (P19099 25-503): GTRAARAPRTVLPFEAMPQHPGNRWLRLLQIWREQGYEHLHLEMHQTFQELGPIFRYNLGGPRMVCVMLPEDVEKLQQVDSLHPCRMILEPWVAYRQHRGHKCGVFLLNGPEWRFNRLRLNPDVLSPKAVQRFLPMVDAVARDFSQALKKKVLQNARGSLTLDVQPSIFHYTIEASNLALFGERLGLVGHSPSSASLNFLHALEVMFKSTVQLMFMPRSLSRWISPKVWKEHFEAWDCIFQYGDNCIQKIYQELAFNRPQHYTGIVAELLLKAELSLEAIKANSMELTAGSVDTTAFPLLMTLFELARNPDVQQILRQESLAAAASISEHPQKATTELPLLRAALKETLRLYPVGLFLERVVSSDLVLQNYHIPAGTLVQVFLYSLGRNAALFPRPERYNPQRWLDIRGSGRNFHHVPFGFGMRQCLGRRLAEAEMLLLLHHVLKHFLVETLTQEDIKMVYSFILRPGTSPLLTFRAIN
As to the kind of experiment: G-402 cellular enzyme assay, human CYP11B2 (aldosterone release, HTRF). To be noted: G-402 cells, 1 μM Deoxycorticosterone. The experiment is classed as cell-based. From the text:
Herein we identified the use of the G-402 cell line as a host cell to ectopically express (transiently or stably) enzymes of the CYP11 family. Specifically we developed stable G-402 cells expressing ectopically human CYP11B1, human CYP11B2, human CYP11A1, cynmolgus CYP11B1 or cynomolgus CYP11B2 enzyme activity. Importantly the identified cell line G-402 expresses co-factors (adrenodoxin and adrenodoxin reductase) important for the activity of the CYP11 family and no relevant enzyme activity of the CYP11 family (in comparison to H295R cells) was detected in these cells. Therefore the G-402 cell line is uniquely suited as a host cell for the ectopic expression of enzymes from the CYP11 family.
G-402 cells can be obtained from ATCC(CRL-1440) and were originally derived from a renal leiomyoblastoma.
The expression plasmids contain the ORF for either human/cyno CYP11B1 or CYP11B2 under the control of a suitable promoter (CMV-promoter) and a suitable resistance marker (neomycin). Using standard techniques the expression plasmid is transfected into G-402 cells and these cells are then selected for expressing the given resistance markers. Individual cell-clones are then selected and assessed for displaying the desired enzymatic activity using 11-Deoxycorticosterone (Cyp11B2) or 11-Deoxycortisol (Cyp11B1) as a substrate.
G-402 cells expressing CYP11 constructs were established as described above and maintained in McCoy's 5a Medium Modified, ATCC Catalog No. 30-2007 containing 10% FCS and 400 μg/ml G418 (Geneticin) at 37° C. under an atmosphere of 5% CO2/95% air.
Cellular enzyme assays were performed in DMEM/F12 medium containing 2.5% charcoal treated FCS and appropriate concentration of substrate (0.3-10 uM 11-Deoxycorticosterone, 11-Deoxycortisol or Corticosterone). For assaying enzymatic activity, cells were plated onto 96 well plates and incubated for 16 h. An aliquot of the supernatant is then transferred and analyzed for the concentration of the expected product (Aldosterone for CYP11B2; Cortisol for CYP11B1). The concentrations of these steroids can be determined using HTRF assays from CisBio analyzing either Aldosterone or Cortisol.
Inhibition of the release of produced steroids can be used as a measure of the respective enzyme inhibition by test compounds added during the cellular enzyme assay. The dose dependent inhibition of enzymatic activity by a compound is calculated by means of plotting added inhibitor concentrations (x-axes) vs. measured steroid/product level (y-axes). The inhibition is then calculated by fitting the following 4-parameter sigmoidal function (Morgan-Mercer-Flodin (MMF) model) to the raw data points using the least squares method:
[formula] wherein, A is the maximum y value, B is the EC50 factor determined using XLFit, C is the minimum y value and D is the slope value.
EC50 values for compounds claimed herein were tested with the G402-based assay system described. Cyp11B2 enzyme activity was tested in presence of 1 μM Deoxycorticosterone and variable amounts of inhibitors; Cyp11B1 enzyme activity was tested in presence of 1 μM Deoxycortisol and variable amounts of inhibitors.
Compound `CC1Cc2cc(Cl)ccc2C(=O)N1c1cncnc1` (stereo not shown) [Example 90, 6-Chloro-3-methyl-2-pyrimidin-5-yl-3,4-dihydro-2H-isoquinolin-1-one] displayed an EC50 of 1230 nM.
`CC(=O)NC1CCCc2c1cncc2N1CCc2cc(Cl)ccc2C1=O` (single isomer, unassigned) [Example 320, N-((R or S)-6-Chloro-1-oxo-3,4,5′,6′,7′,8′-hexahydro-1H-[2,4′]biisoquinolinyl-8′-yl)-acetamide] showed an EC50 of 8030 nM.
The compound `CNC(=O)c1cncc(N2CCc3cc(Cl)ccc3C2=O)c1` [Example 43, 5-(6-Chloro-1-oxo-3,4-dihydro-1H-isoquinolin-2-yl)-N-methyl-nicotinamide] had an EC50 of 372 nM.
The same measure for `CC[C@H]1c2cc(Cl)ccc2C(=O)N1c1cncc2c1CC[C@@H]2NS(C)(=O)=O` (single isomer, unassigned) [Example 370, N-[(S or R)-4-((S or R)-5-Chloro-3-ethyl-1-oxo-1,3-dihydro-isoindol-2-yl)-6,7-dihydro-5H-[2]pyrindin-7-yl]-methanesulfonamide]: 195 nM; for `N#Cc1ccncc1N1CCc2cc(Cl)ccc2C1=O` [Example 74, 3-(6-Chloro-1-oxo-3,4-dihydro-1H-isoquinolin-2-yl)-isonicotinonitrile]: 449 nM; for `CS(=O)(=O)NC1CCc2c1cncc2N1Cc2cc(Cl)ccc2C1=O` (single isomer, unassigned) [Example 335, N-[(S or R)-4-(5-Chloro-1-oxo-1,3-dihydro-isoindol-2-yl)-6,7-dihydro-5H-[2]pyrindin-7-yl]-methanesulfonamide]: 13800 nM.
The same measure for `CC1c2ccc(Cl)cc2C(=O)N1c1cccnc1` (stereo not shown) [Example 119, 6-Chloro-3-methyl-2-pyridin-3-yl-2,3-dihydro-isoindol-1-one]: 722 nM.
As for `CN(C)C(=O)COc1cncc(N2CCc3cc(Cl)ccc3C2=O)c1` [Example 256, 2-[5-(6-Chloro-1-oxo-3,4-dihydro-1H-isoquinolin-2-yl)-pyridin-3-yloxy]-N,N-dimethyl-acetamide], the figure is 774 nM.
Compound `CC(O)c1c(F)cncc1N1CCc2cc(Cl)ccc2C1=O` (stereo not drawn) [Example 62, 6-Chloro-2-[5-fluoro-4-(l-hydroxy-ethyl)-pyridin-3-yl]-3,4-dihydro-2H-isoquinolin-1-one] returned an EC50 of 935 nM.
With `C[C@@H]1Cc2cc(Cl)ccc2C(=O)N1c1cccnc1` [Example 91, (R)-6-Chloro-3-methyl-2-pyridin-3-yl-3,4-dihydro-2H-isoquinolin-1-one], it took 395 nM to reach a half-maximal effect (EC50).
`CS(=O)(=O)NC1CCCc2c1cncc2N1CCc2cc(Cl)ccc2C1=O` (single isomer, unassigned) [Example 324, N-((S or R)-6-Chloro-1-oxo-3,4,5′,6′,7′,8′-hexahydro-1H-[2,4′]biisoquinolinyl-8′-yl)-methanesulfonamide] displayed an EC50 of 2810 nM.
The same measure for `CC(=O)NC1CCc2c1cncc2N1CCc2cc(Cl)ccc2C1=O` (single isomer, unassigned) [Example 332, N-[(R or S)-4-(6-Chloro-1-oxo-3,4-dihydro-1H-isoquinolin-2-yl)-6,7-dihydro-5H-[2]pyrindin-7-yl]-acetamide]: 14800 nM; for `CS(=O)(=O)Nc1cncc(N2CCc3cc(Cl)ccc3C2=O)c1` [Example 220, N-[5-(6-Chloro-1-oxo-3,4-dihydro-1H-isoquinolin-2-yl)-pyridin-3-yl]-methanesulfonamide]: 1080 nM; for `Cn1cnnc1-c1cncc(N2CCc3cc(Cl)ccc3C2=O)c1` [Example 58, 6-Chloro-2-[5-(4-methyl-4H-[1,2,4]triazol-3-yl)-pyridin-3-yl]-3,4-dihydro-2H-isoquinolin-1-one]: 2060 nM.
`CC1Cc2cc(Cl)ccc2C(=O)N1c1cccnc1` (stereo not shown) [Example 88, 6-Chloro-3-methyl-2-pyridin-3-yl-3,4-dihydro-2H-isoquinolin-1-one] had an EC50 of 761 nM.
`CS(=O)(=O)NC1CCc2c1cncc2N1CCc2cc(Cl)ccc2C1=O` (single isomer, unassigned) [Example 330, N-[(S or R)-4-(6-Chloro-1-oxo-3,4-dihydro-1H-isoquinolin-2-yl)-6,7-dihydro-5H-[2]pyrindin-7-yl]-methanesulfonamide] registered an EC50 above 30000 nM.
As to `CCC(=O)Nc1cncc(N2CCc3cc(Cl)ccc3C2=O)c1` [Example 225, N-[5-(6-Chloro-1-oxo-3,4-dihydro-1H-isoquinolin-2-yl)-pyridin-3-yl]-propionamide], the EC50 worked out at 2550 nM.
The same measure for `CCC(=O)N[C@H]1CCCc2c1cncc2N1C(=O)c2ccc(Cl)cc2[C@@H]1CC` (single isomer, unassigned) [Example 351, N-[(S or R)-4-((S or R)-5-Chloro-3-ethyl-1-oxo-1,3-dihydro-isoindol-2-yl)-5,6,7,8-tetrahydro-isoquinolin-8-yl]-propionamide]: 3660 nM.
The compound `CCS(=O)(=O)NCc1cncc(N2CCc3cc(Cl)ccc3C2=O)c1` [Example 25, Ethanesulfonic acid [5-(6-chloro-1-oxo-3,4-dihydro-1H-isoquinolin-2-yl)-pyridin-3-ylmethyl]-amide] gave an EC50 of 401 nM.
The same measure for `CCC(=O)NC1CCc2c1cncc2N1Cc2cc(Cl)ccc2C1=O` (single isomer, unassigned) [Example 338, N-[(S or R)-4-(5-Chloro-1-oxo-1,3-dihydro-isoindol-2-yl)-6,7-dihydro-5H-[2]pyrindin-7-yl]-propionamide]: above 30000 nM.
`O=C1c2ccc(Cl)cc2CCN1c1cncc(-c2ccc(Cl)c(Cl)c2)c1` [Example 241, 6-Chloro-2-[5-(3,4-dichloro-phenyl)-pyridin-3-yl]-3,4-dihydro-2H-isoquinolin-1-one] displayed an EC50 of 582 nM.
As to `CCOc1ccc2c(n1)C(C)(C)N(c1cncc(CNc3cc[nH]n3)c1)C2=O` [Example 385, 2-Ethoxy-7,7-dimethyl-6-{5-[(1H-pyrazol-3-ylamino)-methyl]-pyridin-3-yl}-6,7-dihydro-pyrrolo[3,4-b]pyridin-5-one], the EC50 is 893 nM.
`COC(OC)c1ccncc1N1CCc2cc(Cl)ccc2C1=O` [Example 61, 6-Chloro-2-(4-dimethoxymethyl-pyridin-3-yl)-3,4-dihydro-2H-isoquinolin-1-one] gave an EC50 of 2830 nM.
As for `COc1ccc2c(c1)CCN(c1cccnc1)C2=O` [Example 94, 6-Methoxy-2-pyridin-3-yl-3,4 dihydro-2H-isoquinolin-1-one], the figure is 2060 nM; as for `CC(=O)N[C@H]1CCCc2c1cncc2N1C(=O)c2ccc(Cl)cc2[C@H]1C1CC1` (single isomer, unassigned) [Example 373, N-[(S or R)-4-((R or S)-5-Chloro-3-cyclopropyl-1-oxo-1,3-dihydro-isoindol-2-yl)-5,6,7,8-tetrahydro-isoquinolin-8-yl]-acetamide], above 30000 nM.
The same measure for `O=c1c2ccc(Cl)cc2ccn1-c1cncc(F)c1` [Example 54, 6-Chloro-2-(5-fluoro-pyridin-3-yl)-2H-isoquinolin-1-one]: 212 nM.
The same measure for `O=C(Nc1ccc(F)cc1)c1cncc(N2CCc3cc(Cl)ccc3C2=O)c1` [Example 45, 5-(6-Chloro-1-oxo-3,4-dihydro-1H-isoquinolin-2-yl)-N-(4-fluoro-phenyl)-nicotinamide]: 295 nM; for `O=C1c2ccc(Cl)cc2CCN1c1cncnc1` [Example 51, 6-Chloro-2-pyrimidin-5-yl-3,4-dihydro-2H-isoquinolin-1-one]: 2680 nM.

By EC50 is commonly meant the concentration at which the effect is half-maximal. Lower therefore signals higher potency in that assay.
